In paper PMC8482274, “Inadequate Cerebrospinal Fluid Concentrations of Available Salvage Agents Further Impedes the Optimal Treatment of Multidrug-Resistant Enterococcus faecium Meningitis and Bacteremia” (Infectious Disease Reports, 2021):
Where two headings read alike, the source gives them in different places. Values belong to the compound of their own block, whether it stands above or below them. Numbered stars: 1 amine (or outer) side, 2 acyl side, 3 side chain; on linkers, the order of the positions; unused ones are H or OH. Bridge positions count the residues as written; N and C are the ends. Square brackets hold non-standard residues; d marks the D form. Peptide text beside a SMILES is read from it. * marks the point of attachment. X1 = O=C1C[C@@H](C(=O)[*:2])N([*:1])C[C@H]1CS[C@@H]1CN2CCC1CC2; NMePhe(4-NMe2) = CN[C@@H](Cc1ccc(N(C)C)cc1)C(=O)O; Picolinoyl(3-OH) = O=C(c1ncccc1O)*; Phg = N[C@H](C(=O)O)c1ccccc1; dAbu = CC[C@@H](N)C(=O)O

What was measured:
[1] = design: method as in PMID 16982782, PMID 17043116, PMID 21585240, PMID 25216547; settings: cited from earlier work
[2] = system: VREf isolates; experiment: microbe, parasite or virus in culture; settings: for MIC: modal MIC of triplicate, CLSI guidelines
Experimental: Initial organism identification and susceptibility determination were performed via MALDI-TOF MS (Bruker Daltonics, Billerica, MA, USA) and MicroScan Walkaway (Beckman Coulter, Brea, CA), respectively, in the clinical microbiology laboratory. Pure colonies of the VREf isolates cultured from the CSF on hospital days 33 and 57 and from blood on days 35 and 52 were sub-cultured to BD BBL chocolate II agar slants (Becton, Dickinson and Company, Sparks, MD, USA) and shipped immediately overnight to the research laboratory where all subsequent testing was performed. Identification and resistance marker detection was confirmed via the Verigene Gram-positive blood culture assay (Luminex, Northbrook, IL, USA).
Minimum inhibitory concentrations were determined in triplicate according to CLSI guidelines. Modal MIC values are reported.

[3] = design: method as in PMID 31295511; settings: average in uninfected rats; cited from earlier work
[4] = cited from earlier work
Excerpt: Almost exactly 2 days had elapsed between the time of the patient’s last oritavancin dose and the time of CSF collection.

[5] = Estimated unbound plasma concentration, CSF/plasma penetration and projected maximum CSF concentration extrapolated from published pharmacokinetic data; settings: for CSF/plasma ratio: this patient
Experimental: (§1) CSF samples were immediately frozen at −80 °C and shipped overnight on dry ice. […] Results are presented as the mean (±SD) of the two measured CSF concentrations. Additionally, estimated corresponding unbound plasma concentrations at the time of CSF collection were extrapolated for each agent from published pharmacokinetic data in order to establish an estimate of the degree of CSF/plasma penetration. This % CSF/plasma penetration was then utilized to predict the maximum post-dose CSF concentration on the basis of the peak free plasma concentration (fCmax) and the time of fCmax (Tmax) of each agent. Finally, these predictions were evaluated against published data, all of which were restricted to animal studies except for tigecycline.

[6] = cited from earlier work; remark: listed apart in the source
[7] = cited from earlier work; remark: listed apart in the source
[8] = design: method as in PMID 11408247; settings: animal study; cited from earlier work
[9] = CSF drug concentrations from day 57 lumbar puncture by LC-MS/MS; settings: one patient, systemic dosing at steady state, LLOQ 0.001 mg/L, mean of two CSF tubes, time after last dose: gentamicin 77:30, oritavancin 46:54, tigecycline 8:27, tedizolid 8:25, quinupristin/dalfopristin 2:00 h:m
Experimental: as §1

[10] = system: VREf isolate cultured from the CSF on hospital day 33; experiment: Time-kill experiments; assay type: cell-based, Enterococcus faecium; settings: at mean measured CSF concentration; triplicate
Experimental: Next, the 5 drugs were tested in combination at their respective extrapolated maximal CSF concentration as described.

[11] = Enterococcus faecium, VREf isolate from CSF, hospital day 33
[12] = Enterococcus faecium, VREf isolate from CSF, hospital day 57
[13] = Enterococcus faecium, VREf isolate from blood, hospital day 35
[14] = Enterococcus faecium, VREf isolate from blood, hospital day 52
[15] = VREf isolate from CSF, hospital day 57, CLSI M100-S30 unless footnoted
[16] = VREf isolate from blood, hospital day 52, CLSI M100-S30 unless footnoted

Structure (SMILES): Cn1nnc(-c2ccc(-c3ccc(N4C[C@H](CO)OC4=O)cc3F)cn2)n1 [Tedizolid]
protein binding [1]: 80%
MIC [2, 11]: 2 µg/mL
MIC [2, 12]: 2 µg/mL
MIC [2, 13]: 2 µg/mL
MIC [2, 14]: 2 µg/mL
Published % CSF/Plasma Penetration [3]: 2.2 [16] %
half-life ([4]; in vivo, iv): 12 h
steady-state plasma fCmax ([4]; in vivo, iv): 0.6 mg/L
projected maximal CSF concentration at plasma Tmax ([5]; in vivo): roughly 0.3 mg/L
CSF/plasma ratio ([5]; point estimate): approximately 50%

Structure (SMILES): CN(C)c1cc(NC(=O)CNC(C)(C)C)c(O)c2c1C[C@H]1C[C@H]3[C@H](N(C)C)C(O)=C(C(N)=O)C(=O)[C@@]3(O)C(O)=C1C2=O [Tigecycline]
MIC [2, 11]: 0.25 µg/mL
MIC [2, 12]: 0.25 µg/mL
MIC [2, 13]: 0.25 µg/mL
MIC [2, 14]: 0.25 µg/mL
Interpretive Category ([2]; VREf isolate from CSF, hospital day 33, CLSI M100-S30 unless footnoted (b: CLSI vancomycin-susceptible E. faecalis; c: FDA E. faecalis; d: EUCAST v.10.0 E. faecium)): S
Interpretive Category [2, 15]: S
Interpretive Category ([2]; VREf isolate from blood, hospital day 35, CLSI M100-S30 unless footnoted): S
Interpretive Category [2, 16]: S
penetration ratios ([6]; a patient with cerebritis due to Acinetobacter): 7–36%
Published % CSF/Plasma Penetration ([6]; human, in vivo): 5–41 [21, 22] %
half-life ([4]; in vivo): ≈ 30 h
projected maximal CSF concentration at plasma Tmax ([5]; in vivo): approximately 0.197 mg/L
CSF/plasma ratio ([5]; point estimate): 65.5%

MIC [2, 12]: 0.12 µg/mL
MIC [2, 14]: 0.12 µg/mL
Structure (SMILES): CN(C)[C@@H]1C(O)=C(C(N)=O)C(=O)[C@@]2(O)C(O)=C3C(=O)c4c(O)c(NC(=O)CN5CCCC5)cc(F)c4C[C@H]3C[C@@H]12 [Eravacycline]
Interpretive Category [2, 15]: S
Interpretive Category [2, 16]: S
CNS penetration ([7]; rabbits): virtually zero

Structure (SMILES): CC[C@H]1NC(=O)[C@@H](NC(=O)c2ncccc2O)[C@@H](C)OC(=O)[C@H](c2ccccc2)NC(=O)[C@@H]2CC(=O)[C@H](CS[C@@H]3CN4CCC3CC4)CN2C(=O)[C@H](Cc2ccc(N(C)C)cc2)N(C)C(=O)[C@@H]2CCCN2C1=O [Quinupristin] ({Picolinoyl(3-OH)}-T[dAbu]P[NMePhe(4-NMe2)][X1][Phg]; ester 1-C)
Published % CSF/Plasma Penetration ([7]; rabbit, in vivo): 0 [23, 27] %

Structure (SMILES): CCN(CC)CCS(=O)(=O)[C@@H]1CCN2C(=O)c3coc(n3)CC(=O)C[C@H](O)/C=C(C)/C=C/CNC(=O)/C=C/[C@@H](C)[C@@H](C(C)C)OC(=O)[C@@H]12 [Dalfopristin]
Published % CSF/Plasma Penetration ([7]; rabbit pneumococcal meningitis data): 0 [23, 27] %

Structure (SMILES): CN[C@H](CC(C)C)C(=O)N[C@H]1C(=O)N[C@@H](CC(N)=O)C(=O)N[C@H]2C(=O)N[C@H]3C(=O)N[C@H](C(=O)N[C@H](C(=O)O)c4cc(O)cc(O)c4-c4cc3ccc4O)[C@H](O[C@H]3C[C@](C)(N)[C@@H](O)[C@H](C)O3)c3ccc(c(Cl)c3)Oc3cc2cc(c3O[C@@H]2O[C@H](CO)[C@@H](O)[C@H](O)[C@H]2O[C@H]2C[C@](C)(NCc3ccc(-c4ccc(Cl)cc4)cc3)[C@@H](O)[C@H](C)O2)Oc2ccc(cc2Cl)[C@H]1O [Oritavancin]
MIC ([2]; VREf isolate from CSF, hospital day 33): 0.25 µg/mL
MIC ([2]; VREf isolate from CSF, hospital day 57): 0.25 µg/mL
MIC ([2]; VREf isolate from blood, hospital day 35): 0.25 µg/mL
MIC ([2]; VREf isolate from blood, hospital day 52): 0.25 µg/mL
Published % CSF/Plasma Penetration [8]: 1–5 [26] %
fCmax ([4]; plasma, after a 1200 mg dose, published pharmacokinetic data, ref not given): 20.7 mg/L
half-life ([4]; plasma, published pharmacokinetic data, ref not given): 245 h
Mean (±SD) Measured CSF Concentration [9]: 0.013 ± 0.005 mg/L
bacterial growth (increase) at 24 h compared to the starting inoculum [10]: 0.69 log10 CFU/mL
projected maximal CSF concentration at plasma Tmax ([5]; point estimate): 0.014 mg/L
CSF/plasma ratio ([5]; point estimate): 0.07%
